System: LPS-induced TNF-α release in peripheral blood mononuclear cells (PBMCs)
Test: In vitro determination of PDE4 inhibitory activity in the PBMCs assay (LPS-induced TNF-α release)
Assay type: cell-based
Conditions: PBMC; human PBMCs, LPS 3 ng/ml, 18 hours; read-out: PDE4 inhibition (IC50, 50% inhibition of LPS-induced TNF-α release)
Protocol: The assay, which is based on the known inhibitory activity exerted by PDE4 inhibitors on the lipopolyshaccarides (LPS)-induced tumour necrosis factor-alpha (TNF-α release in peripheral blood mononuclear cells (PBMCs), was performed according to a method previously described (Hatzelmann A et al., J. Pharmacol. Exp. Ther., 2001; 297:267-279; and Draheim R et al., J. Pharmacol. Exp. Ther., 2004; 308:555-563, both of which are incorporated herein by reference in their entireties. Cryopreserved human PBMCs, (100 μl/well) were incubated in 96-well plates (10^5 cells/well), for 30 minutes, in the presence or absence (50 microl) of the test compounds whose concentrations ranged from 10^−12 M to 10^−6 M or from 10^−13 M to 10^−7 M. Subsequently, LPS (3 ng/ml) was added. After 18 hours of incubation at 37° C. in a humidified incubator under an atmosphere of 95% air and 5% CO2, culture medium was collected and TNF-α measured by ELISA.
The results of the tested compounds, representatives of the invention, expressed as mean±95% confidence limits of the molar concentration of the test compound producing 50% inhibition of LPS-induced TNF-α release (IC50) are shown in the following Table: […]

| SMILES | IC50 [nM] |
| --- | --- |
| Nc1ccc2c(c1)C(=O)N(CC(=O)O[C@@H](Cc1c(Cl)c[n+]([O-])cc1Cl)c1ccc(OC(F)F)c(OCC3CC3)c1)C2 [Compound 9, (S)-4-(2-(2-(6-amino-1-oxoisoindolin-2-yl)acetoxy)-2-(3-(cyclopropylmethoxy)-4-(difluoromethoxy)phenyl)ethyl)-3,5-dichloropyridine 1-oxide] | 1 to 10 |
| CS(=O)(=O)Nc1ccc2c(c1)C(=O)N(CC(=O)O[C@@H](Cc1c(Cl)c[n+]([O-])cc1Cl)c1ccc(OC(F)F)c(OCC3CC3)c1)C2 [Compound 10, (S)-3,5-dichloro-4-(2-(3-(cyclopropylmethoxy)-4-(difluoromethoxy)phenyl)-2-(2-(6-(methylsulfonamido)-1-oxoisoindolin-2-yl)acetoxy)ethyl)pyridine 1-oxide] | 1 to 10 |
| Nc1cccc2c1C(=O)N(CC(=O)O[C@@H](Cc1c(Cl)c[n+]([O-])cc1Cl)c1ccc(OC(F)F)c(OCC3CC3)c1)C2=O [Compound 12, (S)-4-(2-(2-(4-amino-1,3-dioxoisoindolin-2-yl)acetoxy)-2-(3-(cyclopropylmethoxy)-4-(difluoromethoxy)phenyl)ethyl)-3,5-dichloropyridine 1-oxide] | < 1 |
| O=C(Cn1ccc2ccccc21)O[C@@H](Cc1c(Cl)c[n+]([O-])cc1Cl)c1ccc(OC(F)F)c(OCC2CC2)c1 [Compound 14, (S)-4-(2-(2-(1H-indol-1-yl)acetoxy)-2-(3-(cyclopropylmethoxy)-4-(difluoromethoxy)phenyl)ethyl)-3,5-dichloropyridine 1-oxide] | < 1 |
| CSCCC(C(=O)OC(Cc1c(Cl)c[n+]([O-])cc1Cl)c1ccc(OC(F)F)c(OCC2CC2)c1)N1C(=O)c2ccccc2C1=O (stereo not shown) [Compound 15] | < 1 |
| CC(C(=O)OC(Cc1c(Cl)c[n+]([O-])cc1Cl)c1ccc(OC(F)F)c(OCC2CC2)c1)N1C(=O)c2ccccc2C1=O (stereo not shown) [Compound 18] | < 1 |
| O=C(CN1C(=O)c2cc(Cl)c(Cl)cc2C1=O)O[C@@H](Cc1c(Cl)c[n+]([O-])cc1Cl)c1ccc(OC(F)F)c(OCC2CC2)c1 [Compound 19] | < 1 |
| Cn1cnc2c1c(=O)n(CC(=O)O[C@@H](Cc1c(Cl)c[n+]([O-])cc1Cl)c1ccc(OC(F)F)c(OCC3CC3)c1)c(=O)n2C [Compound 20] | < 1 |
| O=C(Cn1cnc2ccccc21)O[C@@H](Cc1c(Cl)c[n+]([O-])cc1Cl)c1ccc(OC(F)F)c(OCC2CC2)c1 [Compound 22] | 1 to 10 |
| O=C(CN1C(=O)C(=O)c2ccccc21)O[C@@H](Cc1c(Cl)c[n+]([O-])cc1Cl)c1ccc(OC(F)F)c(OCC2CC2)c1 [Compound 25] | < 1 |
| O=C(CN1C(=O)C(=O)c2cc([N+](=O)[O-])ccc21)O[C@@H](Cc1c(Cl)c[n+]([O-])cc1Cl)c1ccc(OC(F)F)c(OCC2CC2)c1 [Compound 26] | > 10 |
| O=C(CN1C(=O)c2ccccc2C1=O)O[C@H](Cc1c(Cl)c[n+]([O-])cc1Cl)c1ccc(OC(F)F)c(OCC2CC2)c1 [Compound 29] | > 10 |
| O=C(Cn1c(=O)[nH]c2ccccc2c1=O)O[C@@H](Cc1c(Cl)c[n+]([O-])cc1Cl)c1ccc(OC(F)F)c(OCC2CC2)c1 [Compound 30] | < 1 |
| CC1(C)c2ccccc2S(=O)(=O)N1CC(=O)O[C@@H](Cc1c(Cl)c[n+]([O-])cc1Cl)c1ccc(OC(F)F)c(OCC2CC2)c1 [Compound 35, (S)-3,5-dichloro-4-(2-(3-(cyclopropylmethoxy)-4-(difluoromethoxy)phenyl)-2-(2-(3,3-dimethyl-1,1-dioxidobenzo[d]isothiazol-2(3H)-yl)acetoxy)ethyl)pyridine 1-oxide] | 1 to 10 |
| O=C(Cn1c(=O)c(=O)n(CCN2CCOCC2)c2ccccc21)O[C@@H](Cc1c(Cl)c[n+]([O-])cc1Cl)c1ccc(OC(F)F)c(OCC2CC2)c1 [Compound 37, (S)-3,5-dichloro-4-(2-(3-(cyclopropylmethoxy)-4-(difluoromethoxy)phenyl)-2-(2-(4-(2-morpholinoethyl)-2,3-dioxo-3,4-dihydroquinoxalin-1(2H)-yl)acetoxy)ethyl)pyridine 1-oxide] | < 1 |
| O=C(Cn1c(=O)n(CCN2CCOCC2)c(=O)c2ccccc21)O[C@@H](Cc1c(Cl)c[n+]([O-])cc1Cl)c1ccc(OC(F)F)c(OCC2CC2)c1 [Compound 38] | < 1 |

| SMILES | IC50 [nM] |
| --- | --- |
| O=C(Cn1c(=O)c2ccccc2n(CCN2CCOCC2)c1=O)O[C@@H](Cc1c(Cl)c[n+]([O-])cc1Cl)c1ccc(OC(F)F)c(OCC2CC2)c1 [Compound 39] | < 1 |
| O=C(Cn1c(=O)c2ccccc2c(=O)n1CCN1CCOCC1)O[C@@H](Cc1c(Cl)c[n+]([O-])cc1Cl)c1ccc(OC(F)F)c(OCC2CC2)c1 [Compound 40] | 1 to 10 |
| O=C(Cn1ccc2cc(O)ccc21)O[C@@H](Cc1c(Cl)c[n+]([O-])cc1Cl)c1ccc(OC(F)F)c(OCC2CC2)c1 [Compound 42, (S)-3,5-dichloro-4-(2-(3-(cyclopropylmethoxy)-4-(difluoromethoxy)phenyl)-2-(2-(5-hydroxy-1H-indol-1-yl)acetoxy)ethyl)pyridine 1-oxide] | < 1 |
| COc1ccc2c(ccn2CC(=O)O[C@@H](Cc2c(Cl)c[n+]([O-])cc2Cl)c2ccc(OC(F)F)c(OCC3CC3)c2)c1 [Compound 45, (S)-3,5-dichloro-4-(2-(3-(cyclopropylmethoxy)-4-(difluoromethoxy)phenyl)-2-(2-(5-methoxy-1H-indol-1-yl)acetoxy)ethyl)pyridine 1-oxide] | < 1 |
| COc1cc2ccn(CC(=O)O[C@@H](Cc3c(Cl)c[n+]([O-])cc3Cl)c3ccc(OC(F)F)c(OCC4CC4)c3)c2cc1OC [Compound 54] | 1 to 10 |
| COc1ccc2c(c1)C(=O)C(=O)N2CC(=O)O[C@@H](Cc1c(Cl)c[n+]([O-])cc1Cl)c1ccc(OC(F)F)c(OCC2CC2)c1 [Compound 57, (S)-3,5-dichloro-4-(2-(3-(cyclopropylmethoxy)-4-(difluoromethoxy)phenyl)-2-(2-(5-methoxy-2,3-dioxoindolin-1-yl)acetoxy)ethyl)-pyridine 1-oxide] | < 1 |
| O=C(Cn1ccc2cccnc21)O[C@@H](Cc1c(Cl)c[n+]([O-])cc1Cl)c1ccc(OC(F)F)c(OCC2CC2)c1 [Compound 60] | 1 to 10 |
| O=C(Cn1ccc2cnccc21)O[C@@H](Cc1c(Cl)c[n+]([O-])cc1Cl)c1ccc(OC(F)F)c(OCC2CC2)c1 [Compound 61] | 1 to 10 |
| COc1ccc2c(c1)N(CC(=O)O[C@@H](Cc1c(Cl)c[n+]([O-])cc1Cl)c1ccc(OC(F)F)c(OCC3CC3)c1)C(=O)C2=O [Compound 64, (S)-3,5-dichloro-4-(2-(3-(cyclopropylmethoxy)-4-(difluoromethoxy)phenyl)-2-(2-(6-methoxy-2,3-dioxoindolin-1-yl)acetoxy)ethyl)-pyridine 1-oxide] | < 1 |
| COc1cccc2c1C(=O)N(CC(=O)O[C@@H](Cc1c(Cl)c[n+]([O-])cc1Cl)c1ccc(OC(F)F)c(OCC3CC3)c1)C2=O [Compound 68, (S)-3,5-dichloro-4-(2-(3-(cyclopropylmethoxy)-4-(difluoromethoxy)phenyl)-2-(2-(4-methoxy-1,3-dioxoisoindolin-2-yl)acetoxy)-ethyl)pyridine 1-oxide] | < 1 |
| CS(=O)(=O)Nc1ccc2c(ccn2CC(=O)O[C@@H](Cc2c(Cl)c[n+]([O-])cc2Cl)c2ccc(OC(F)F)c(OCC3CC3)c2)c1 [Compound 76, (S)-3,5-dichloro-4-(2-(3-(cyclopropylmethoxy)-4-(difluoromethoxy)phenyl)-2-(2-(5-(methylsulfonamido)-1H-indol-1-yl)acetoxy)-ethyl)pyridine 1-oxide] | < 1 |
| CS(=O)(=O)Nc1cccc2c1ccn2CC(=O)O[C@@H](Cc1c(Cl)c[n+]([O-])cc1Cl)c1ccc(OC(F)F)c(OCC2CC2)c1 [Compound 84, (S)-3,5-dichloro-4-(2-(3-(cyclopropylmethoxy)-4-(difluoromethoxy)phenyl)-2-(2-(4-(methylsulfonamido)-1H-indol-1-yl)acetoxy)-ethyl)pyridine 1-oxide] | < 1 |
| CS(=O)(=O)Nc1cn(CC(=O)O[C@@H](Cc2c(Cl)c[n+]([O-])cc2Cl)c2ccc(OC(F)F)c(OCC3CC3)c2)c2ccccc12 [Compound 93, (S)-3,5-dichloro-4-(2-(3-(cyclopropylmethoxy)-4-(difluoromethoxy)phenyl)-2-(2-(3-(methylsulfonamido)-1H-indol-1-yl)acetoxy)ethyl)pyridine 1-oxide] | 1 to 10 |
| CS(=O)(=O)Nc1ccc2c(c1)C(=O)C(=O)N2CC(=O)O[C@@H](Cc1c(Cl)c[n+]([O-])cc1Cl)c1ccc(OC(F)F)c(OCC2CC2)c1 [Compound 99, (S)-3,5-dichloro-4-(2-(3-(cyclopropylmethoxy)-4-(difluoromethoxy)phenyl)-2-(2-(5-(methylsulfonamido)-2,3-dioxoindolin-1-yl)acetoxy)ethyl)pyridine 1-oxide] | 1 to 10 |
| O=C(CN1C(=O)c2ccccc2S1(=O)=O)O[C@@H](Cc1c(Cl)c[n+]([O-])cc1Cl)c1ccc(OC(F)F)c(OCC2CC2)c1 [Compound 102, (S)-3,5-dichloro-4-(2-(3-(cyclopropylmethoxy)-4-(difluoromethoxy)phenyl)-2-(2-(1,1-dioxido-3-oxobenzo[d]isothiazol-2(3H)-yl)acetoxy)ethyl)pyridine 1-oxide] | < 1 |

Reference: patent US9024027B2, “Derivatives of 1-phenyl-2-pyridinyl alkyl alcohols as phosphodiesterase inhibitors” (Chiesi Farmaceutici S.p.A., priority 2011, dated 2015)
